Like-named read-outs stand apart in the source and are kept apart here.
How the values were obtained:
SUDHL10 [1] = assay: Induction of caspase-3/7 activity (Assay 4), SUDHL10; format: cell-based; conditions: caspase-3/7 induction, median
Outline: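 DLBCL cells were exposed to compounds for 3 hours at 37 °C, then caspase-3/7 activation was read with Caspase-Glo 3/7 reagent. After subtracting medium-only background, EC50s were derived with fixed C0=1 and the reference compound's maximal induction as plateau.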

SUDHL10 [2] = assay: Induction of cytotoxicity (Assay 6), SUDHL10; conditions: read-out: Cytotox SUDHL10 [M] (median) IC50, CellTiter-Glo, 5 hours, SUDHL10
BCL-2 = BCL-2 (Homo sapiens (Human), UniProt P10415); assay: Protein-protein interaction assay BCL-2/Bad BH3 peptide (BCL-2 assay, TR-FRET); format: binding; conditions: His-BCL-2 / Bad BH3 peptide, median
Sequence of BCL-2 (P10415 other isoform, or with tags, fused parts or gaps): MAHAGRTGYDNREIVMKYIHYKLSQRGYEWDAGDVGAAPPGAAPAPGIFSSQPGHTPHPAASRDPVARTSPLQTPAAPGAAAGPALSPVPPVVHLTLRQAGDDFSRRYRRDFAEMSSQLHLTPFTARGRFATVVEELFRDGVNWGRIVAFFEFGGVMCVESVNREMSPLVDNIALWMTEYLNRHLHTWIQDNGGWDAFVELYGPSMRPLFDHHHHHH
Procedure: Assay 3 Protein-Protein Interaction Assay: BCL-2/Bad BH3 Peptide (BCL-2 Assay)
The dose-dependent inhibition by the compounds described in this invention of the interaction between BCL-2 and the BH3 domain of Bad (both human) was determined using a steady state binding competition assay with time-resolved fluorescence energy transfer (TR-FRET) readout. For that purpose BCL-2 (amino acids 1-211, C-terminal fused to a hexahistidine (6×His) tag (SEQ ID 5) and a synthetic Bad BH3-derived peptide of sequence Biotin-PEG2-PEG2-NLWAAQRYGRELRR-Nle-SDEFVDSFKK-amide (SEQ ID 4) served as protein receptor and tracer ligand respectively. The recombinant BCL-2 protein (expressed in E. coli) was purchased from BPS Bioscience (San Diego, Calif., USA). The Bad BH3-derived peptide can be obtained from e.g. Biosyntan (Berlin, Germany).
In the assay 11 different concentrations of each compound (0.1 nM, 0.33 nM, 1.1 nM, 3.8 nM, 13 nM, 44 nM, 0.15 μM, 0.51 μM, 1.7 μM, 5.9 μM and 20 μM) were typically measured as duplicates in the same microtiter plate. For that, 100-fold concentrated DMSO solutions were prepared by serial dilutions (1:3.4) of a 2 mM stock solution in a clear, 384-well microtiter plate (Greiner Bio-One, Frickenhausen, Germany). From there, 50 nl were transferred in a dark test plate (Greiner Bio-One, Frickenhausen, Germany). The assay was initiated by addition of 2 μl of a 2.5-fold concentrated His-BCL-2 solution (usually for a 1 nM end concentration in 5 μl reaction volume) in aqueous assay buffer [50 mM Tris/HCl pH 7, 100 mM sodium chloride (NaCl), 50 mM potassium fluoride (KF), 0.005% Tween-20, 2 mM DTT, 0.1% bovine gamma globulin (BGG)] to the compounds in the assay plate. This was followed by a 10-minute incubation step at 22° C. for pre-equilibration of the putative complex between His-BCL-2 and the compounds. After that, 3 μl of a 1.67-fold concentrated solution (in assay buffer) consisting of Bad BH3-derived peptide (1 nM end concentration) and TR-FRET detection reagents [1.67 nM anti-His-Eu cryptate and 1.67 nM streptavidin-XL665 (both from Cisbio Bioassays, Codolet, France)], were added.
The mixture was incubated in the dark for one hour at 22° C. and then overnight at 4° C. The formation of BCL-2/Bad complexes was determined by measuring the resonance energy transfer of the anti-His-Eu-cryptate antibody to the streptavidin-XL665 present in the reaction. For that purpose, the fluorescence emission at 620 nm and 665 nm after excitation at 330-350 nm was measured in a TR-FRET measuring instrument, for instance a Rubystar or a Pherastar (both from BMG Lab Technologies, Offenburg, Germany) or a Viewlux (Perkin-Elmer). The ratio of the emission at 665 nm and at 622 nm was used as indicator of the amount of BCL-2/Bad complexes present.
The resulting data (ratio) were normalized, taking 0% inhibition as the mean value of control measurements (usually 32 data points) where all reagents were included. In this case 50 nl DMSO were used instead of compounds. A 100% inhibition corresponded to the mean value of control measurements (usually 32 data points) where all reagents except BCL-2 were included. IC50 values were determined by regression analysis based on a 4 parameter equation (minimum, maximum, IC50, Hill; Y=Max+(Min−Max)/(1+(X/IC50)^HiII) using the Screener Software (Genedata).

SUDHL5 [3] = assay: Induction of cytotoxicity (Assay 6), SUDHL5; conditions: read-out: Cytotox SUDHL5 [M] (median) IC50, CellTiter-Glo, 5 hours, SUDHL5
SUDHL5 [4] = assay: Antiproliferation assay (Assay 7), SUDHL5; format: cell-based; conditions: CellTiter-Glo, median, read-out: Antiproli SUDHL5 [M] (median) IC50
Outline: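 Plate cells in treatment and day 0 reference plates; read day 0 plate with CellTiter-Glo after 10 min; incubate treated plates 72 h at 37° C; read them identically.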

Row | EC50 (SUDHL10 [1]; 3 hours) [nM] | IC50 (BCL-2) [nM] | IC50 (SUDHL5 [4]; Homo sapiens, SU-DHL-5, 72 h) [M] | EC50 (SUDHL10 [1]; Homo sapiens, SU-DHL10, 3 h) [nM] | IC50 (SUDHL5 [4]; 72 hours) [M] | Compound | IC50 (SUDHL10 [2]) [M] | IC50 (SUDHL5 [3]) [M] | IC50 (SUDHL10 [2]; Homo sapiens, SU-DHL10, 5 h) [M] | IC50 (SUDHL5 [3]; Homo sapiens, SU-DHL-5, 5 h) [M]
1 | 9.7 | > 20000 | 3.1e-08 |  |  | Cc1c2c(nn1C)C(CCN1CCOCC1)N(C)S(=O)(=O)CCCn1c(C(=O)O)c(CCCOc3cccc4cc(F)ccc34)c3ccc(Cl)c-2c31 (racemic) [Example 48, (rac)-4-chloro-7-{3-[(6-fluoro-1-naphthyl)oxy]propyl}-2,3,14-trimethyl-15-(rac)-[2-(morpholin-4-yl)ethyl]-11,12,14,15-tetrahydro-2H,10H-pyrazolo[3′,4′:4,5][1,2,8]thiadiazacycloundecino[6,7,8-hi]indole-8-carboxylic acid 13,13-dioxide (Mixture of Stereoisomers)] | 1.2e-08 | 1.4e-08 |  | 
2 |  | 20000 | 8.5e-07 | 270 |  | COc1ccc(CN2Cc3nn(C)c(C)c3-c3c(Cl)ccc4c(CCCOc5cccc6cc(F)ccc56)c(C(=O)O)n(c34)CCCS2(=O)=O)c(OC)c1 (racemic) [Example 49, (rac)-4-chloro-14-(2,4-dimethoxybenzyl)-7-{3-[(6-fluoro-1-naphthyl)oxy]propyl}-2,3-dimethyl-11,12,14,15-tetrahydro-2H,10H-pyrazolo[3′,4′:4,5][1,2,8]thiadiazacycloundecino[6,7,8-hi]indole-8-carboxylic acid 13,13-dioxide] |  |  | 2.2e-07 | 1.8e-07
3 |  | > 20000 | 2e-06 | 2800 |  | Cc1c2c(nn1C)CNS(=O)(=O)CCCn1c(C(=O)O)c(CCCOc3cccc4cc(F)ccc34)c3ccc(Cl)c-2c31 (racemic) [Example 50, (rac)-4-chloro-7-{3-[(6-fluoro-1-naphthyl)oxy]propyl}-2,3-dimethyl-11,12,14,15-tetrahydro-2H,10H-pyrazolo[3′,4′:4,5][1,2,8]thiadiazacycloundecino[6,7,8-hi]indole-8-carboxylic acid 13,13-dioxide] |  |  | 3.8e-06 | 1.4e-06
4 | 78 | 17000 |  |  | 5.6e-08 | CCc1c2c(nn1C)C(CCC1CCOCC1)N(C)S(=O)(=O)CCCn1c(C(=O)O)c(CCCOc3cccc4cc(F)ccc34)c3ccc(Cl)c-2c31 (racemic) [Example 59, (rac)-4-chloro-3-ethyl-7-{3-[(6-fluoro-1-naphthyl)oxy]propyl}-2,14-dimethyl-15-[2-(tetrahydro-2H-pyran-4-yl)ethyl]-11,12,14,15-tetrahydro-2H,10H-pyrazolo[3′,4′:4,5][1,2,8]thiadiazacycloundecino[6,7,8-hi]indole-8-carboxylic acid 13,13-dioxide (Racemate 2)] | 1e-07 | 5.9e-08 |  | 
5 | 60 | > 20000 |  |  | 6e-08 | Cc1c2c(nn1C)C(CCN1CCOCC1)N(C)S(=O)(=O)CCCn1c(C(=O)O)c(CCCOc3cccc4cc(F)ccc34)c3ccc(Cl)c-2c31 (racemic) [Example 65, (rac)-4-chloro-7-{3-[(6-fluoronaphthalen-1-yl)oxy]propyl}-2,3,14-trimethyl-15-(rac)-[2-(morpholin-4-yl)ethyl]-13,13-dioxo-10,11,12,13,14,15-hexahydro-2H-13lambda^6-pyrazolo[3′,4′:4,5][1,2,8]thiadiazacycloundecino[6,7,8-hi]indole-8-carboxylic acid (Mixture of Stereoisomers)] | 1e-07 | 5.8e-08 |  | 
6 | 1000 | > 20000 |  |  | 7.6e-07 | CCc1c2c(nn1C)CN(C)S(=O)(=O)CCCn1c(C(=O)O)c(CCCOc3cccc4cc(F)ccc34)c3ccc(F)c-2c31 (single isomer, unassigned; enantiomer 1) [Example 8, (+)-3-Ethyl-4-fluoro-7-{3-[(6-fluoronaphthalen-1-yl)oxy]propyl}-2,14-dimethyl-13,13-dioxo-10,11,12,13,14,15-hexahydro-2H-13λ^6-pyrazolo[3′,4′:4,5][1,2,8]thiadiazacycloundecino-[6,7,8-hi]indole-8-carboxylic acid (Enantiomer 1)] | 1.1e-06 | 7.7e-07 |  | 
